Experimental data as given in PubChem BioAssay (NCI).
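Briefly, cells in 96-well plates were exposed to five compound concentrations for 48 h, and endpoints were estimated by linear interpolation. TGI denotes the concentration required for complete inhibition of growth.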 *1 amine or outer side, *2 acyl side, *3 side chain or, on linkers, in order; H or OH if unused. Where a SMILES comes first, the peptide text is derived from it. Bridges are numbered along the chain shown (N, C = ends). [ ]: non-standard residue; d: D form. The star is where a group is joined. ξ: configuration not given here. X34 = O=C(C(CCCCNO[*:3])N[*:1])[*:2]; Fmoc = O=C(OCC1c2ccccc2-c2ccccc21)*; ξW = NC(Cc1c[nH]c2ccccc12)C(=O)O; ξP = O=C(O)C1CCCN1

Columns and labels:
Assay in all cases: growth of human tumour cells (NCI), 48 h
SF-295 CNS = tested on: SF-295 CNS
HOP-92 NSCLC = tested on: HOP-92 NSCLC
U251 CNS = tested on: U251 CNS
NCI-H23 lung = tested on: NCI-H23 lung
HCT-116 colon = tested on: HCT-116 colon
M14 melanoma = tested on: M14 melanoma
HOP-62 NSCLC = tested on: HOP-62 NSCLC
OVCAR-8 ovarian = tested on: OVCAR-8 ovarian
OVCAR-4 ovarian = tested on: OVCAR-4 ovarian
UACC-62 melanoma = tested on: UACC-62 melanoma
SK-OV-3 ovarian = tested on: SK-OV-3 ovarian

Row | Structure (SMILES) | TGI (SF-295 CNS) [µM] | TGI (HOP-92 NSCLC) [µM] | TGI (U251 CNS) [µM] | TGI (NCI-H23 lung) [µM] | TGI (HCT-116 colon) [µM] | TGI (M14 melanoma) [µM] | TGI (HOP-62 NSCLC) [µM] | TGI (OVCAR-8 ovarian) [µM] | TGI (OVCAR-4 ovarian) [µM] | TGI (UACC-62 melanoma) [µM] | TGI (SK-OV-3 ovarian) [µM]
1 | c1ccc2c(c1)OC(N1CCCC1)c1cnc(N3CCCC3)nc1-2 (centres undefined) | 82.1 | 47.3 | > 100 | > 100 | > 100 | > 100 | > 100 | > 100 | > 100 | > 100 | > 100
2 | OC1C2[C@@H](O)CCCN2C[C@@H](O)[C@H]1O (some centres undefined) | > 100 | > 100 | > 100 | > 100 | > 100 | > 100 | > 100 | > 100 | > 100 | > 100 | > 100
3 | CC(C)Sc1nc(C#N)cc2c1CCCC2 | > 100 | 93.5 | > 100 | > 100 | > 100 | > 100 | > 100 | > 100 | > 100 | > 100 | > 100
4 | CCOc1cc(NC(C)=O)ccc1C(=O)NNC(=O)c1ccccc1OC(C)=O | > 100 | > 100 | > 100 | > 100 | > 36.8 | 26.6 | > 100 | > 100 | > 52.4 | 37 | > 100
5 | Cc1ccc([C@@H]2[C@@H](C(=O)c3ccccn3)[C@H](c3ccc(C)cc3)C[C@](O)(c3ccccn3)[C@H]2C(=O)c2ccccn2)cc1 | > 100 | > 100 | > 100 | > 100 | > 100 | 3.01 | > 100 | > 100 | > 100 | 35.2 | > 39.2
6 | CCN(CC)CCc1c2c(nc3ccccc13)C(=O)c1cccnc1C2=O | 5.41 | 40.1 | 20 | 8.53 | 3.53 | 1.73 | 11.8 | > 100 | 3.69 | 2.97 | 4.22
7 | N.N.N.O=[N+]([O-])[O-].O=[N+]([O-])[O-].O=[N+]([O-])[O-].O=[N+]([O-])[O-].[Co+3] | > 100 | > 100 | > 100 | > 100 | > 100 | > 100 | > 100 | > 100 | > 100 | > 100 | > 100
8 | COCOC1/C=C/CCCCC2=C(C)C=C(C1)O2 (centres undefined) | > 100 | > 100 | > 100 | > 100 | > 100 | > 100 | > 100 | > 100 | > 100 | > 100 | > 100
9 | CSc1nc(Cl)c2c(n1)Sc1nc3cc4c(cc3n1C2O)OCCO4 (centres undefined) | 38.5 | 4.41 | 14.3 | 19.9 | 26.6 | 15.5 | 23 | 3.03 | 44.2 | 7.87 | > 53.4
10 | COc1cc(O)c(/C=N/N=C(\N)NO)c(OC)c1 | > 10 | > 10 | > 10 | > 10 | > 10 | > 10 | > 10 | > 10 | > 10 | > 10 | > 10
11 | COCOC1/C=C/CCCC#C[C@H](C)C(=O)CC1 (some centres undefined) | 31.7 | 19.2 | 24.8 | 19.4 | 5.99 | 21 | 34.8 | 38 | 22.3 | 22.6 | 29.3
12 | c1ccc(C2C3=C(Nc4ncnn42)c2ccccc2C3)cc1 (centres undefined) | > 100 | > 100 | 17.7 | 65.1 | > 100 | > 100 | > 100 | > 100 | > 100 | > 100 | > 100
13 | NC(=O)CNC(=O)C1CCCN1C(=O)C1CCCCNOC(=O)CC[C@@H](NC(=O)OCC2c3ccccc3-c3ccccc32)C(=O)NC(Cc2c[nH]c3ccccc23)C(=O)N1 (some centres undefined) (Fmoc-[dE][ξW][X34][ξP]G-NH2; ester 1-3) | > 100 | > 100 | > 100 | > 100 | > 100 | > 100 | > 100 | > 100 | > 100 | > 100 | > 100
14 | CC(CN1c2ccccc2Sc2ccccc21)N(C)C (centres undefined) | 28.9 | 35.4 | 27.7 | 38.2 | 28.9 | 33.9 | 28.5 | 29.8 | 32.5 | 33.9 | 32.6
15 | COC(=O)CC(C(C(=O)OC)C(=O)OC)N1C(=O)OCC1c1ccccc1 (centres undefined) | > 100 | > 100 | > 100 | > 100 | > 100 | > 100 | > 100 | > 100 | > 100 | > 100 | > 100
16 | C[N+]1=C2[B-](C(C)(C)C)=[N+](C(C)(C)C)[B-]2(C(C)(C)C)[N+](C)=C2[B-](C(C)(C)C)=[N+](C(C)(C)C)[B-]21C(C)(C)C (centres undefined) | > 100 | > 100 | > 100 | > 100 | > 100 | > 100 | > 100 | > 100 | > 100 | > 100 | > 100
17 | COc1cccc(-c2cc(=O)c3ccccc3o2)c1N | > 100 | > 100 | > 100 | > 100 | > 100 | > 100 | > 100 | > 100 | > 100 | > 100 | > 100
18 | COc1cccc2c(N)c3cccc(C(=O)NCCN(C)C)c3nc12 | 2.01 | 1.3 | 1.57 | 1.02 | 0.726 | 1.71 | 0.833 | 0.594 | 0.656 | 0.78 | 1.97
19 | CCCCN1C(=O)CC2[C@@H]3CCc4cc(OC(C)=O)ccc4C3CC[C@]2(C)C1=O (some centres undefined) | > 10 | > 10 | > 10 | > 10 | > 10 | > 10 | > 10 | > 10 | > 10 | > 10 | > 10
